Experimental data as given in patent US9802899B2, “Heterocyclic compounds as pesticides” (BAYER CROPSCIENCE AG, priority 2012, dated 2017).

Legend:
Cooperia curticei = Cooperia curticei test (COOPCU); format: in vivo
Method: Cooperia curticei Test (COOPCU)
(§1) Solvent: dimethyl sulphoxide
(§2) To produce a suitable preparation of active compound, 10 mg of active compound are mixed with 0.5 ml of dimethyl sulphoxide, and the concentrate is diluted with Ringer solution to the desired concentration.
Vessels containing the active compound preparation of the desired concentration are populated with about 40 nematode larvae (Cooperia curticei).
(§3) After 5 days, the kill in % is determined 100% means that all of the larvae have been killed; 0% means that none of the larvae have been killed.

Musca domestica = Musca domestica test (MUSCDO); format: in vivo; details: adult flies, after 2 days
Method: Musca domestica Test (MUSCDO)
as §1
To produce a suitable preparation of active compound, 10 mg of active compound are mixed with 0.5 ml of dimethyl sulphoxide, and the concentrate is diluted with water to the desired concentration.
Vessels containing a sponge treated with the active compound formulation of the desired concentration are populated with adult Musca domestica.
After 2 days, the kill in % is determined. 100% means that all of the flies have been killed; 0% means that none of the flies have been killed.

Meloidogyne incognita = Meloidogyne incognita test (MELGIN); format: in vivo; details: Meloidogyne incognita, 336 h; application rate 20 ppm; lettuce in sand; after 14 days; read-out: nematicidal effect (formation of galls)
Method: Meloidogyne incognita Test (MELGIN)
Solvent: 125.0 parts by weight of acetone
To prepare a suitable active compound preparation, 1 part by weight of active compound is mixed with the stated amount of solvent and the concentrate is diluted with water to the desired concentration.
Vessels are filled with sand, active compound solution, an egg/larvae suspension of the root-knot nematode (Meloidogyne incognita) and lettuce seeds. The lettuce seeds germinate and the plants develop. On the roots, galls are formed.
After 14 days, the nematicidal effect in % is determined by the formation of galls. 100% means that no galls have been found; 0% means that the number of galls on the treated plants corresponds to the untreated control.

Ctenocephalides felis = Ctenocephalides felis oral test (CTECFE); format: in vivo; details: application rate 100 ppm in citrated cattle blood; adult fleas; after 2 days
Method: Ctenocephalides felis—Oral Test (CTECFE)
Solvent: 1 part by weight of dimethyl sulphoxide
To produce a suitable preparation of active compound, 10 mg of active compound are mixed with 0.5 ml of dimethyl sulphoxide. A portion of the concentrate is diluted with citrated cattle blood, and the desired concentration is prepared.
About 20 unfed adult fleas (Ctenocephalides felis) are placed into a chamber which is closed at the top and bottom with gauze. A metal cylinder whose bottom end is closed with a parafilm is placed onto the chamber. The cylinder contains the blood/active compound preparation, which can be imbibed by the fleas through the Parafilm membrane.
After 2 days, the kill in % is determined 100% means that all fleas have been killed; 0% means that none of the fleas have been killed.

Phaedon cochleariae = Phaedon cochleariae spray test (PHAECO); format: in vivo; details: foliar, 168 h, application rate 500 g/ha, larvae on Chinese cabbage leaf discs, after 7 days, read-out: efficacy
Method: Phaedon cochleariae Spray Test (PHAECO)
Solvents: 78.0 parts by weight of acetone • • 1.5 parts by weight of dimethylformamide
Emulsifier: 0.5 part by weight of alkylaryl polyglycol ether
To produce a suitable preparation of active compound, 1 part by weight of active compound is mixed with the stated amounts of solvents and emulsifier, and the concentrate is diluted with emulsifier-containing water to the desired concentration.
After 7 days, the efficacy in % is determined. 100% means that all of the beetle larvae have been killed; 0% means that none of the beetle larvae have been killed.

Boophilus microplus [1] = assay: Boophilus microplus test (DIP); format: in vivo; details: application rate 100 ppm, after 7 days by laying of fertile eggs, 100% = no fertile eggs
Method: Boophilus microplus Test (DIP)
Test animals: adult engorged Boophilus microplus females of the SP-resistant Parkhurst strain
as §1
10 mg of active compound are dissolved in 0.5 ml of dimethyl sulphoxide. For the purpose of preparing a suitable formulation, the active compound solution is diluted with water to the concentration desired in each case.
This active compound preparation is pipetted into tubes. 8-10 ticks are transferred into a further tube with holes. The tube is immersed into the active compound formulation, and all ticks are completely wetted. After the liquid has run out, the ticks are transferred onto filter discs in plastic dishes and stored in a climate-controlled room.
(§4) The activity is assessed after 7 days by laying of fertile eggs. Eggs whose fertility is not visible from the outside are stored in a climate-controlled cabinet until the larvae hatch. An efficacy of 100% means that none of the ticks has laid any fertile eggs.

[2] = Determination of the log P values by HPLC (formic acid method); format: physicochemical; details: reversed-phase column (C 18), acidic range (pH 3.4), 55° C.; for chromatographic logP: reversed-phase HPLC column (C 18)
Method: 1) Description of Method for Determination of the Log P Values (Formic Acid Method)
Eluents for determination in the acidic range (pH 3.4):
Eluent A: acetonitrile+1 ml of formic acid/liter. Eluent B: water+0.9 ml of formic acid/liter.
The lambda max values were determined in the maxima of the chromatographic signals using the UV spectra from 200 nm to 400 nm.

Haemonchus contortus = Haemonchus contortus test (HAEMCO); format: in vivo; details: application rate 4 ppm; larvae; after 5 days
Method: Haemonchus contortus Test (HAEMCO)
as §1, §2
Vessels containing the active compound preparation of the desired concentration are populated with about 40 larvae of the red stomach worm (Haemonchus contortus).
as §3

[3] = Determination of the log P values by HPLC (formic acid method); format: physicochemical; details: printed as (neutral)
Boophilus microplus [4] = assay: Boophilus microplus test (BOOPMI injection); format: in vivo; details: application rate 20 μg/animal; injection into the abdomen; after 7 days by laying of fertile eggs
Method: Boophilus microplus Test (BOOPMI Injection)
as §1
To produce a suitable preparation of active compound, 10 mg of active compound are mixed with 0.5 ml of solvent, and the concentrate is diluted with solvent to the desired concentration.
The active compound solution is injected into the abdomen (Boophilus microplus), and the animals are transferred into dishes and stored in a climate-controlled room.
as §4, with “the larvae hatch after about 42 days. An efficacy” for “the larvae hatch. An efficacy”, “any fertile eggs; 0% means that all eggs are fertile.” for “any fertile eggs.”

log P [2] | SMILES | efficacy (kill) (Ctenocephalides felis) | efficacy (Boophilus microplus [1]) | efficacy (kill) (Haemonchus contortus) | also measured
 | O=C(Nc1ccn(-c2c(F)cccc2F)n1)c1ncccc1C(F)(F)F [Compound I-1-91, N-[1-(2,6-Difluorophenyl)-1H-pyrazol-3-yl]-3-(trifluoromethyl)pyridine-2-carboxamide] | 80% | 90% |  | pest or weed control at 100 ppm (Cooperia curticei; Cooperia curticei, 120 h, application rate 100 ppm, nematode larvae, after 5 days, read-out: efficacy (kill)): 90%; efficacy (kill) (Musca domestica; application rate 20 ppm): 85%; pest or weed control at 20 ppm (Meloidogyne incognita): 100%; pest or weed control at 500 g/ha (Phaedon cochleariae): 100%; chromatographic logP [2]: 2.22
 | O=C(Nc1cnn(-c2ccccc2Cl)n1)c1ccccc1C(F)(F)F [Compound I-2-1, N-[2-(2-Chlorophenyl)-2H-1,2,3-triazol-4-yl]-2-(trifluoromethyl)benzamide] | 90% | 100% | 80% | pest or weed control at 4 ppm (Cooperia curticei; Cooperia curticei, 120 h, read-out: efficacy (kill)): 100%; pest or weed control at 500 g/ha (Phaedon cochleariae): 100%; chromatographic logP [2]: 3.02
3.57 | O=C(Nc1ccn(-c2cc(F)ccc2F)n1)c1sccc1I [Compound I-1-221] |  |  | 90% | efficacy (kill) (Cooperia curticei; application rate 4 ppm, nematode larvae, after 5 days): 90%
1.98 | O=C(Nc1ccn(-c2ncccc2Cl)n1)c1cccnc1C(F)(F)F [Compound I-1-562] |  |  |  | efficacy (kill) (Musca domestica; application rate 100 ppm): 90%
2.26 | O=C(Nc1cnn(-c2ncccc2F)n1)c1c(F)cccc1C(F)(F)F [Compound I-2-49] |  |  | 90% | 
 | O=C(Nc1ccn(-c2ccccc2Br)n1)c1c(F)cccc1C(F)(F)F [Compound I-1-335] |  |  |  | log P (neutral) [3]: 3.02
2.45 | O=C(Nc1ccn(-c2c(F)cccc2F)n1)c1nccnc1C(F)(F)F [Compound I-1-99] | 80% | 100% |  | efficacy (kill) (Musca domestica; application rate 20 ppm): 90%
2.24 | O=C(Nc1ccn(-c2ncccc2F)n1)c1ccccc1C(F)(F)F [Compound I-1-128] | 85% |  |  | 
2.76 | O=C(Nc1ccn(-c2ccccc2Br)n1)c1ncccc1Cl [Compound I-1-55] |  |  |  | efficacy (Boophilus microplus [4]): 80%
2.14 | O=C(Nc1cnn(-c2ncccc2F)n1)c1ccccc1I [Compound I-2-51] |  |  | 80% | 
